Data taken from US11446299B2, “Carbazole EHop-016 derivatives as anticancer and anti-migratory agents” (UNIVERSITY OF PUERTO RICO, priority 2017, dated 2022).
Read-outs that look alike come from different tables or passages of the source.

Columns and labels:
Rac1-Vav2 interaction = Rac1-Vav2 interaction (Homo sapiens, UniProt P63000); details: cited from earlier work
tumor = details: at ≥25 mg/kg Body Weight, mouse model; cited from earlier work
[1] = mouse model; cited from earlier work
Rac = Rac (Homo sapiens, UniProt P63000); details: cited from earlier work
PAK1 = details: at 2 μM; cited from earlier work
MDA-MB-231 cancer cells = test: Sulforhodamine B (SRB) growth inhibition assay; assay type: cell-based, human; details: Homo sapiens, MDA-MB-231; SRB assay, 24 h treatment, mean of triplicate, SD <10%
Description: (§1) Various compounds were tested to evaluate the dose response curve for effect on MCF-7 cancer cells and MDA-MB-231 cancer cells. MCF-7 and MDA-MB-231 cells were cultured in 10% Minimum Essential Medium Eagle (MEME) supplemented with Earle's Balanced Salt Solution (EBSS), Non-essential Amino acids (NEAA), Sodium pyruvate, Pen/Strep, L-glutamine and Fetal Bovine Serum (FBS) at 37° C. in 5% CO2.
(§2) Sulforhodamine B (SRB) Assay: A stock solution of compounds was prepared at 50 mM in 100% DMSO. For cells preparation, a flask of 75 cm^2 or 25 cm^2 were used for 2.6×10^5 cells or 1.44×10^5 cells respectively with an 80-90% of confluence. Cells were washed with PBS and trypsinized. The concentration of cells was determined using a 1:2 dilutions with Trypan Blue and a hemocytometer. After cell count, the concentration was adjusted to have a 1.9×10^4 cells/well. Approximately […] of cells suspension, compounds, control positive and control negative were added in triplicates to a 96 well plate. Positive controls used were ellipticine, doxorubicin, and/or vincristine, and the negative control was DMSO 0.1%. All compounds at 50, 25, 12.5, 6.3, and 1.6 μM were incubated with cells at 37° C. for 24 hrs. For fixation, cold TCA 50% was used and incubated at 4° C. for 1 hr. Wells were washed and dried prior to tincture with 100 μL of SRB 0.4%. To remove excess of SRB, acetic acid was used. For analysis, TRIS-BASE Solution (pH=10.5) was used and shacked prior to reading using an ELISA reader at 510 nm and the software SoftMax Pro 4.8.
(§3) For each compound, 50% growth inhibition (GI50) was calculated from Sigmoidal dose-response curves (variable-slope) that were generated with data obtained from experiments carried out in triplicates (GI50 values were generated with GraphPad Prism V. 6.02, GraphPad Software, Inc.). The results are presented in FIGS. 4A-4B (MCF-7 cancer cells) and FIGS. 5A-5B (MDA-MB-231 cancer cells).

MCF-7 cancer cells = test: Sulforhodamine B (SRB) growth inhibition assay; assay type: cell-based; details: Homo sapiens, MCF7, 24 h treatment, mean of triplicate, SD <10%
Description: as §1, §2, §3

[2] = tested on: MDA-MB-231 breast cancer cell lines; test: Cytotoxicity (IC50) of EHop-016 derivatives modified in building block C; assay type: cell-based; details: Homo sapiens, concentration at which 50% of the cell growth is inhibited
Description: (§4) An additional example of a compounds with modification in building block C was synthesized via a different procedure as represented in Scheme 2B (see FIG. 11B). The compounds that were synthesized were tested for their biological activity by determination of their cytotoxicity in MDA-MB-231 breast cancer cell lines as shown in Table 5. The cytotoxicity's are expressed as IC50, which indicates the concentration at which 50% of the cell growth is inhibited. Furthermore, the inhibition of cell migration was tested at a concentration of 0.2×IC50, or, when the IC50 was >50 μM at a concentration of 10 μM. For comparison, Table 5 also includes the Lipinski and drug-likeness parameters as calculated via the MolSoft platform.

Cdc42 = Cdc42 (Homo sapiens, UniProt P60953); details: cited from earlier work
Cdc42, sequence (P60953 whole entry, species assumed): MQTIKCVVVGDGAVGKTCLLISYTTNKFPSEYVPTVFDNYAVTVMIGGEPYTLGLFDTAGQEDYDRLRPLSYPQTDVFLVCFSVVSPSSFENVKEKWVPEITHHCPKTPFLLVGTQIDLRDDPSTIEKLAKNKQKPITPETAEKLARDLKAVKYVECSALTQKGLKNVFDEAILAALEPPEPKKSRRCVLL

[3] = tested on: MDA-MB-231 breast cancer cells; test: Wound healing assay (scratch method), cell migration; assay type: cell-based, human; details: for inhibition at 10 µM: read-out: anti-migratory activity (inhibition of migration); for inhibition of migration in words: at a concentration of 0.2×IC50
Description: The experimental data of anti-migratory activities for compounds 3a-d and 4a-f were obtained using MDA-MB-231 breast cancer cells. For the migration assay, a wound-healing assay (scratch-wound assay) was utilized in the presence of vehicle (0.02% DMSO) or compounds at […].
Prior to assays, cells were grown until 80-90% confluence was observed. A 75 cm2 flask was used for 2.6×10^5 cells/mL in 10 mL and for a 25 cm2 flask 1.44×10^5 cells/mL in 5 mL. The cells were washed with PBS to remove all traces of FBS. 2 mL was added for a 25 cm2 flasks or 4 mL for a 75 cm2 flasks trypsin, and incubated 5-10 min at 37° C. At the end of the incubation time, cells were re-suspended and counted with hemocytometer using 1:2 dilutions with Trypan blue. Subsequently, cell viability was calculated. In a 12 multiwell plate, the plastic pattern was used to draw a fine space with a fine marker on the bottom of the plate. Cells were seeded at 1.5-2.2×10^5 cells/mL in 1 mL and incubated for 24 h. Cells were then rinsed with PBS and incubated in starving media (0.5% FBS) overnight. All controls and drugs were tested in triplicate. The negative control for each drug was prepared according to the drug's DMSO concentration.
Drugs were diluted and the final concentration at each well […]. The wound was made using a sterile pipette tip of […]. Cells were then rinsed very gently with media without FBS and media with negative controls was added. After a 24 h incubation, the gap distance was evaluated using the software Lumera Infinity Analyze 6.4.0. Pictures were taken at 0, 8, 12 and 24 h using a 10× objective. The percentage of migration was calculated using the following formula: 100−[(X0/X0)]*100 for time 0 h measurements 100−[(X24/X0)]*100 for time 24 h measurements
The experimental data of anti-migratory activities for compounds 3a-d and 4a-f were obtained using MDA-MB-231 breast cancer cells, and results are summarized in Table 1. For the migration assay, we used a wound-healing assay (scratch-wound assay)^22 in the presence of vehicle (0.02% DMSO) or compounds at 10 μM (FIG. 6). […] However, compounds 3a, 3c, and 4a-f inhibited migration in the range of 1-9%.
as §4
Migration assays were performed via the Scratch Method as described previously.

[4] = tested on: SH-SY5Y neuroblastoma cells; test: Growth inhibition, log dose-response; assay type: cell-based; details: Homo sapiens
Excerpt: FIG. 14 (A-B). Log dose-response curve for compound 8 in MCF-7 (FIG. 14A) and SH-SY5Y neuroblastoma (FIG. 14B) cells.

In the case of CCn1c2ccccc2c2cc(Nc3ccnc(NCCCN4CCOCC4)n3)ccc21 (racemic) [EHop-016], the IC50 (Rac1-Vav2 interaction) is given as 1 µM, the “tumor growth, metastasis and angiogenesis in words” value (tumor) is given as “significantly reduced tumor growth, metastasis, and angiogenesis” and the clearance in words [1] is given as “cleared rapidly from the circulation”. For the same compound, the “activity relative to previously available Rac inhibitors” value (Rac) was 10-100 times, the IC50 (Rac; metastatic breast cancer cells) was 1 µM and the inhibition of PAK1 (PAK1) was 60%. For the same compound, the GI50 (MDA-MB-231 cancer cells) was 15 µM, the GI50 (MCF-7 cancer cells) was 14 µM and the IC50 [2] was 15.7 µM. The “concentrations that inhibit Cdc42 activity” value (Cdc42) was ≥ 10 µM, the activity at 1 µM ([3]; Homo sapiens, MDA-MB-231, 24 h) was 95.4% and the activity at 5 µM ([3]; Homo sapiens, MDA-MB-231, 24 h, at 5 μM) was 63.4%. For the same compound, the inhibition at 1 µM ([3]; Homo sapiens, MDA-MB-231, read-out: inhibition of migration, at 1.0 μM, scratch method) was 5%, the inhibition at 5 µM ([3]; Homo sapiens, MDA-MB-231, read-out: inhibition of migration, at 5.0 μM, scratch method) was 37% and the inhibition at 10 µM ([3]; Homo sapiens, MDA-MB-231) was 33%. For the same compound, the inhibition at 10 µM ([3]; Homo sapiens, at 10 μM, 24 h, MDA-MB-231) was 33%, the activity at 10 µM ([3]; Homo sapiens, percent relative migration at 10 μM after 24 h, relative to control, MDA-MB-231) was 67 ± 7.55% and the anti-migratory activity ([3]; at 5 pM as printed, MDA-MB-231) was 17%. For the same compound, the anti-migratory activity ([3]; at 5 μM, MDA-MB-231) was 17%.

CCn1c2ccccc2c2cc(Nc3cc(C)nc(NCCCN4CCOCC4)n3)ccc21 [Compound 8, N^4-(9-Ethyl-9H-carbazol-3-yl)-6-methyl-N^2-(3-morpholin-4-yl-propyl)-pyrimidine-2,4-diamine] showed a GI50 [4] of 6 µM and a GI50 (MCF-7 cancer cells) of 9.5 µM.

With CCN(CC)CCCC(C)Nc1nccc(Nc2ccc3c(c2)c2ccccc2n3CC)n1 (centres unmarked) [Compound 32, N^2-(5-(diethylamino)pentan-2-yl)-N^4-(9-ethyl-9H-carbazol-3-yl)pyrimidine-2,4-diamine] the IC50 [2] was 9 µM and the activity at 1.8 µM ([3]; Homo sapiens, MDA-MB-231, 24 h, at 1.8 μM (0.2×IC50)) was 99.9%.

Work on CCn1c2ccccc2c2cc(Nc3ccnc(NCCCn4ccnc4)n3)ccc21 [Compound 33, N^2-(3-(1H-imidazol-1-yl)propyl)-N^4-(9-ethyl-9H-carbazol-3-yl)pyrimidine-2,4-diamine] yielded an IC50 [2] of 7.57 µM and an activity at 1.51 µM ([3]; Homo sapiens, MDA-MB-231, 24 h, at 1.51 μM (0.2×IC50)) of 100%.

Compound CCn1c2ccccc2c2cc(Nc3ccnc(NCC4CCCCN4)n3)ccc21 (centres unmarked) [Compound 34, N^4-(9-ethyl-9H-carbazol-3-yl)-N^2-(piperidin-2-ylmethyl)pyrimidine-2,4-diamine] has an IC50 [2] of 1.97 µM and an activity at 0.39 µM ([3]; Homo sapiens, MDA-MB-231, 24 h, at 0.39 μM (0.2×IC50)) of 100%.

In the case of CCn1c2ccccc2c2cc(Nc3ccnc(NCCC4CCCN4C)n3)ccc21 (centres unmarked) [Compound 35, N^4-(9-ethyl-9H-carbazol-3-yl)-N^2-(2-(1-methylpyrrolidin-2-yl)ethyl)pyrimidine-2,4-diamine], the IC50 [2] is reported as 19.1 µM, the activity at 3.8 µM ([3]; Homo sapiens, MDA-MB-231, 24 h, at 3.8 μM (0.2×IC50)) is reported as 89.1% and the “inhibition of migration in words” value [3] is reported as “inhibition of migration”.

In the case of CCn1c2ccccc2c2cc(Nc3ccnc(NCCO)n3)ccc21 [Compound 36, 2-((4-((9-ethyl-9H-carbazol-3-yl)amino)pyrimidin-2-yl)amino) ethanol], the IC50 [2] is reported as 14.6 µM and the activity at 2.92 µM ([3]; Homo sapiens, MDA-MB-231, 24 h, at 2.92 μM (0.2×IC50)) is reported as 94.8%.

For CCn1c2ccccc2c2cc(Nc3ccnc(NCCOCCO)n3)ccc21 [Compound 37, 2-(2-((4-((9-ethyl-9H-carbazol-3-yl)amino)pyrimidin-2-yl)amino)ethoxy)ethanol], the IC50 [2] was > 50 µM and the activity at 3.07 µM ([3]; Homo sapiens, MDA-MB-231, 24 h, at 3.07 μM) was 100%.

For CCn1c2ccccc2c2cc(Nc3ccnc(NCCOC)n3)ccc21 [Compound 38, N^4-(9-ethyl-9H-carbazol-3-yl)-N^2-(2-methoxyethyl)pyrimidine-2,4-diamine], the IC50 [2] was > 50 µM and the activity at 2.8 µM ([3]; Homo sapiens, MDA-MB-231, 24 h, at 2.8 μM) was 96.7%.

In the case of CCn1c2ccccc2c2cc(Nc3ccnc(NCc4ccc(OC)cc4OC)n3)ccc21 [Compound 39, N^2-(2,4-dimethoxybenzyl)-N^4-(9-ethyl-9H-carbazol-3-yl) pyrimidine-2,4-diamine], the IC50 [2] is reported as > 50 µM and the activity at 0.92 µM ([3]; Homo sapiens, MDA-MB-231, 24 h, at 0.92 μM) is reported as 103%.

In the case of CCn1c2ccccc2c2cc(Nc3ccnc(Nc4c(OC)cc(OC)cc4OC)n3)ccc21 [Compound 40, N^4-(9-ethyl-9H-carbazol-3-yl)-N^2-(2,4,6-trimethoxyphenyl) pyrimidine-2,4-diamine], the IC50 [2] is reported as 7.7 µM, the activity at 1.54 µM ([3]; Homo sapiens, MDA-MB-231, 24 h, at 1.54 μM (0.2×IC50)) is reported as 80.2% and the “inhibition of migration in words” value [3] is reported as “inhibition of migration”.

In the case of CCn1c2ccccc2c2cc(Nc3ccnc(NC(=O)Nc4cc(Cl)c(OC)cc4OC)n3)ccc21 [Compound 41, 1-(5-chloro-2,4-dimethoxyphenyl)-3-(4-((9-ethyl-9H-carbazol-3-yl)amino)pyrimidin-2-yl)urea], the IC50 [2] is reported as 10.9 µM, the activity at 1 µM ([3]; Homo sapiens, MDA-MB-231, 24 h) is reported as 77.3% and the “inhibition of migration in words” value [3] is reported as “inhibition of migration”.
